# From US9365583B2, “Substituted pyrazoles and uses thereof” (Genentech, Inc., priority 2013, dated 2016)
# Biological target: T1, N-terminally GST-tagged DLK (catalytic domain amino acid 1-520) (Homo sapiens, UniProt Q12852)
# T1 construct: N-terminally GST-tagged DLK (catalytic domain amino acid 1-520); purchased Carna Bioscience
# T1 sequence (Q12852 1-520): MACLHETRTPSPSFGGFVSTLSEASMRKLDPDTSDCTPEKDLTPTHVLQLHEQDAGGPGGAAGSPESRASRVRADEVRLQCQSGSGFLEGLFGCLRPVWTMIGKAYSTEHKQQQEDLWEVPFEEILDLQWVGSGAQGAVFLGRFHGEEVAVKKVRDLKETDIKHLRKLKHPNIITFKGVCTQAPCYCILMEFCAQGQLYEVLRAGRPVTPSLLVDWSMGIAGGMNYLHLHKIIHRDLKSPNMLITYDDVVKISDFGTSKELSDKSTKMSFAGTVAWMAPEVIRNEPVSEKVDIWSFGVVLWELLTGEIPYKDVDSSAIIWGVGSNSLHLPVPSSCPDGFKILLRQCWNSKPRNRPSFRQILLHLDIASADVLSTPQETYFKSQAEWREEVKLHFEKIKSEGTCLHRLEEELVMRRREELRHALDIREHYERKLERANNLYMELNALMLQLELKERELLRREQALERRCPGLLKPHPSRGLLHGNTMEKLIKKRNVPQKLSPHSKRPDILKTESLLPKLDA
# Assay: DLK TR-FRET inhibition assay
# Type: biochemical
# Conditions: 5 nM GST-DLK, 40 nM HIS-MKK4 K131M substrate, 30 μM ATP, 60 minutes at ambient temperature
# How it was run: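 Phosphorylated MKK4 was quantified by TR-FRET (Eu-labelled anti-phospho-MKK4, D2 anti-HIS; 3 h, 665 and 615 nm emission) after EDTA quench. Reactions held 5 nM GST-tagged DLK catalytic domain (1-520), 40 nM HIS-MKK4 K131M substrate, 30 μM ATP and compound (3-fold series from 20 uM), 60 min, room temperature, pH 7.5.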
row,Compound,Ki [nM]
1,"COC1CCN([C@H]2C[C@@H]3[C@H](C2)[C@H]3c2cc(-c3cnc(N)c(OC(F)F)c3)nn2C(C)C)CC1 [compound 247, 3-(difluoromethoxy)-5-(1-isopropyl-5-((1R,3r,5S,6r)-3-(4-methoxypiperidin-1-yl)bicyclo[3.1.0]hexan-6-yl)-1H-pyrazol-3-yl) pyridin-2-amine]",2.9
2,"CC(C)n1nc(-c2cnc(N)c(C(F)(F)F)c2)cc1[C@H]1[C@@H]2C[C@H](N3CCN(C4COC4)CC3)C[C@@H]21 [compound 116, 5-(1-isopropyl-5-((1R,3r,5S,6r)-3-(4-(oxetan-3-yl)piperazin-1-yl)bicyclo[3.1.0]hexan-6-yl)-1H-pyrazol-3-yl)-3-(trifluoromethyl) pyridin-2-amine]",7.79
3,"CC(C)n1nc(-c2cnc(N)c(C(=O)N3CCCC3)c2)cc1[C@H]1[C@@H]2C[C@H](N3CC(F)C3)C[C@@H]21 [compound 107, (2-amino-5-(5-((1R,3r,5S,6r)-3-(3-fluoroazetidin-1-yl)bicyclo [3.1.0]hexan-6-yl)-1-isopropyl-1H-pyrazol-3-yl)pyridin-3-yl) (pyrrolidin-1-yl)methanone]",> 321
4,"CC(C)n1nc(-c2cnc(N)c(OC(F)(F)F)c2)cc1[C@H]1[C@@H]2C[C@H](N3CC4(CCCO4)C3)C[C@@H]21 [compound 226, 5-(5-((1R,3r,5S,6r)-3-(5-oxa-2-azaspiro[3.4]octan-2-yl)bicyclo [3.1.0]hexan-6-yl)-1-isopropyl-1H-pyrazol-3-yl)-3-(trifluoro-methoxy)pyridin-2-amine]",3.2
5,"CC(C)n1nc(-c2cnc(N)c(C(F)(F)F)c2)cc1[C@H]1[C@@H]2C[C@H](N)C[C@@H]21 [compound 269, 5-(5-((1R,3r,5S,6r)-3-amino-bicyclo[3.1.0]hexan-6-yl)-1-isopropyl-1H-pyrazol-3-yl)-3-(trifluoro-methyl)pyridin-2-amine]",4.1
6,"Nc1ncc(-c2cc([C@H]3[C@@H]4C[C@H](N5CCOCC5)C[C@@H]43)n(C3CCCC3)n2)cc1OC(F)F [compound 129, 5-(1-cyclopentyl-5-((1R,3r,5S,6r)-3-morpholinobicyclo[3.1.0]hexan-6-yl)-1H-pyrazol-3-yl)-3-(difluoromethoxy)pyridin-2-amine]",4.52
7,"CC(C)n1nc(-c2cnc(N)c(OC(F)F)c2)cc1[C@H]1[C@@H]2C[C@H](N3CC(F)(F)C3)C[C@@H]21 [compound 43, 5-(5-((1R,3r,5S,6r)-3-(3,3-difluoro-azetidin-1-yl)bicyclo[3.1.0]hexan-6-yl)-1-isopropyl-1H-pyrazol-3-yl)-3-(difluoromethoxy) pyridin-2-amine]",3.05
8,"CC(C)n1nc(-c2cnc(N)c(C(F)(F)F)c2)cc1[C@H]1[C@@H]2C[C@@H](N3CCO[C@@H](C)C3)C[C@@H]21 [compound 112, 5-(1-isopropyl-5-((1R,3s,5S,6S)-3-((S)-2-methylmorpholino)bicyclo[3.1.0]hexan-6-yl)-1H-pyrazol-3-yl)-3-(trifluoromethyl) pyridin-2-amine]",5.87
9,"Nc1ncc(-c2cc([C@H]3[C@@H]4C[C@@H](N5CCOCC5)C[C@@H]43)nn2CC2CC2)cc1OC(F)F [compound 268, 5-(1-(cyclopropylmethyl)-3-((1R,3s,5S,6r)-3-morpholinobicyclo [3.1.0]hexan-6-yl)-1H-pyrazol-5-yl)-3-(difluoromethoxy) pyridin-2-amine]",221
10,"CC(C)n1nc(-c2cnc(N)c(C(F)(F)F)c2)cc1[C@@H]1[C@@H]2C[C@@H](N3CC(C#N)C3)C[C@@H]21 [compound 124, 1-((1R,3s,5S,6s)-6-(3-(6-amino-5-(trifluoromethyl)pyridin-3-yl)-1-isopropyl-1H-pyrazol-5-yl)bicyclo[3.1.0]hexan-3-yl) azetidine-3-carbonitrile]",> 1600
11,"CC(C)n1nc(-c2cnc(N)c(OC(F)(F)F)c2)cc1[C@H]1[C@@H]2C[C@H](N(C)CC3COC3)C[C@@H]21 [compound 19, 5-(1-isopropyl-5-((1R,3r,5S,6r)-3-(methyl(oxetan-3-ylmethyl)amino)bicyclo[3.1.0]hexan-6-yl)-1H-pyrazol-3-yl)-3-(trifluoro-methoxy)pyridin-2-amine]",2.97
12,"CC(C)n1nc(-c2cnc(N)c(C(F)(F)F)c2)cc1[C@@H]1[C@@H]2C[C@@H](O)C[C@@H]21 [compound 122, (1R,3s,5S,6s)-6-(3-(6-amino-5-(trifluoromethyl)pyridin-3-yl)-1-isopropyl-1H-pyrazol-5-yl) bicyclo[3.1.0]hexan-3-ol]",> 321
13,"CC(C)n1nc(-c2cnc(N)c(C(F)(F)F)c2)cc1[C@H]1[C@@H]2C[C@H](N3CCCC3=O)C[C@@H]21 [compound 35, 1-((1R,3r,5S,6r)-6-(3-(6-amino-5-(trifluoromethyl)pyridin-3-yl)-1-isopropyl-1H-pyrazol-5-yl)bicyclo[3.1.0]hexan-3-yl)pyrrolidin-2-one]",3

# Stronger by Ki, values ahead:
row,Ki [nM],Compound
1,2.54,"CC(C)n1nc(-c2cnc(N)c(OC(F)(F)F)c2)cc1[C@H]1[C@@H]2C[C@@H](N3CC(F)C3)C[C@@H]21 [compound 28, 5-(5-((1R,3s,5S,6r)-3-(3-fluoro-azetidin-1-yl)bicyclo[3.1.0]hexan-6-yl)-1-isopropyl-1H-pyrazol-3-yl)-3-(trifluoromethoxy) pyridin-2-amine]"
2,2.5,"COCCN1CC[C@@]12C[C@@H]1[C@H](C2)[C@H]1c1cc(-c2cnc(N)c(C(F)(F)F)c2)nn1C(C)C [compound 161, 5-(1-isopropyl-5-((1′R,2r,5′S,6′r)-1-(2-methoxyethyl)spiro [azetidine-2,3′-bicyclo[3,1.0]hexan]-6′-yl)-1H-pyrazol-3-yl)-3-(trifluoro-methyl)pyridin-2-amine]"
3,2.43,"CC(C)n1nc(-c2cnc(N)c(OC(F)(F)F)c2)cc1[C@H]1[C@@H]2C[C@@H](N3CCOC[C@@H]3C)C[C@@H]21 [compound 104, 5-(1-isopropyl-5-((1R,3s,5S,6S)-3-((S)-3-methylmorpholino)bicyclo[3.1.0]hexan-6-yl)-1H-pyrazol-3-yl)-3-(trifluoromethoxy) pyridin-2-amine]"
4,1.87,"5-(1-isopropyl-5-((1R,3s,5S,6R)- 3-((R)-2-methylmorpholino) bicyclo[3.1.0]hexan-6-yl)-1H- pyrazol-3-yl)-3-(trifluoromethoxy) pyridin-2-amine [compound 11]"
5,1.72,"CCN1CCN([C@H]2C[C@@H]3[C@H](C2)[C@H]3c2cc(-c3cnc(N)c(OC(F)(F)F)c3)nn2C(C)C)CC1 [compound 14, 5-(5-((1R,3r,5S,6r)-3-(4-ethylpiperazin-1-yl)bicyclo[3.1.0]hexan-6-yl)-1-isopropyl-1H-pyrazol-3-yl)-3-(trifluoromethoxy) pyridin-2-amine]"
6,1.7,"CC(C)n1nc(-c2cnc(N)c(C(F)(F)F)c2)cc1[C@H]1[C@@H]2C[C@@H](N3CCN(C)C[C@@H]3C)C[C@@H]21 [compound 239, 5-(5-((1R,3s,5S,6S)-3-((S)-2,4-dimethylpiperazin-1-yl)bicyclo [3.1.0]hexan-6-yl)-1-isopropyl-1H-pyrazol-3-yl)-3-(trifluoromethyl) pyridin-2-amine]"
7,1.4,"CC(C)n1nc(-c2cnc(N)c(OC(F)F)c2)cc1[C@H]1[C@@H]2C[C@@H](N3CC4CC(C3)O4)C[C@@H]21 [compound 278, 5-(5-((1R,3s,5S,6r)-3-(6-oxa-3-azabicyclo[3.1.1]heptan-3-yl)bicyclo[3.1.0]hexan-6-yl)-1-isopropyl-1H-pyrazol-3-yl)-3-(difluoromethoxy)pyridin-2-amine]"
8,1.22,"Nc1ncc(-c2cc([C@H]3[C@@H]4C[C@H](N5CCOCC5)C[C@@H]43)n(CC(F)F)n2)cc1OC(F)(F)F [compound 93, 5-(1-(2,2-difluoroethyl)-5-((1R,3r,5S,6r)-3-morpholinobicyclo [3.1.0]hexan-6-yl)-1H-pyrazol-3-yl)-3-(trifluoromethoxy)pyridin-2-amine]"
9,1.1,"CC(C)n1nc(-c2cnc(N)c(OC(F)(F)F)c2)cc1[C@H]1[C@@H]2C[C@@H](N3CCN(C)C[C@@H]3C)C[C@@H]21 [compound 237, 5-(5-((1R,3s,5S,6S)-3-((S)-2,4-dimethylpiperazin-1-yl)bicyclo [3.1.0]hexan-6-yl)-1-isopropyl-1H-pyrazol-3-yl)-3-(trifluoro-methoxy)pyridin-2-amine]"
10,1.03,"CC(C)n1nc(-c2cnc(N)c(C(F)(F)F)c2)cc1[C@H]1[C@@H]2C[C@H](N3CCCOCC3)C[C@@H]21 [compound 100, 5-(5-((1R,3r,5S,6r)-3-(1,4-oxazepan-4-yl)bicyclo[3.1.0]hexan-6-yl)-1-isopropyl-1H-pyrazol-3-yl)-3-(trifluoromethyl)pyridin-2-amine]"
11,0.14,"CC(C)n1nc(-c2cnc3ccn([C@@H](C)c4ccccn4)c3c2)cc1[C@H]1[C@@H]2C[C@H](N3CCOCC3)C[C@@H]21 [compound 27, 4-((1R,3S,5S,6r)-6-(1-isopropyl-3-(1-((S)-1-(pyridin-2-yl)ethyl)-1H-pyrrolo[3,2-b]pyridin-6-yl)-1H-pyrazol-5-yl)bicyclo[3.1.0]hexan-3-yl)morpholine]"
